{
  "source": "ChEMBL document CHEMBL4706505",
  "about": "“F10, a new camptothecin derivative, was identified as a new orally-bioavailable, potent antitumor agent” (Eur J Med Chem, 2020)",
  "key": {"Raji [1]": {"tested_on": "Raji", "assay": "Antitumor activity against NPG mouse xenografted with human Raji cell assessed as decrease in tumor volume at 8 mg/kg, ig measured after 5 day", "type": "functional"}, "Raji [2]": {"tested_on": "Raji", "assay": "Antitumor activity against NPG mouse xenografted with human Raji cell assessed as decrease in tumor volume at 2 mg/kg, ip measured after 5 day", "type": "functional"}, "COLO 205": {"tested_on": "COLO 205", "assay": "Cytotoxicity against human COLO 205 assessed as reduction in cell viability measured after 72 hrs by MTT assay", "type": "functional, cell-based", "conditions": "COLO 205, 72 h"}, "[3]": {"assay": "AUC (0 to infinity) in nude BALB/c mouse serum at 8.0 mg/kg incubated up to 9 hrs, iv administered […] by LC-MS/MS analysis", "type": "ADME, organism-based", "set-up": "route intravenous, dose 8 mg/kg, time <=9", "conditions": "in vivo"}, "[4]": {"assay": "MRT (0 to infinity) in nude BALB/c mouse serum at 8.0 mg/kg incubated up to 9 hrs, iv administered […] by LC-MS/MS analysis", "type": "ADME, organism-based"}, "[5]": {"assay": "Toxicity in Kunming mouse assessed as mortality at 200 mg/kg ip measured once every 30 mins upto 10 days", "type": "organism-based", "conditions": "in vivo, 0.5 h"}, "[6]": {"biological_target": "T1, DNA topoisomerase 1 (Homo sapiens) (UniProt P11387)", "T1 sequence (whole entry)": "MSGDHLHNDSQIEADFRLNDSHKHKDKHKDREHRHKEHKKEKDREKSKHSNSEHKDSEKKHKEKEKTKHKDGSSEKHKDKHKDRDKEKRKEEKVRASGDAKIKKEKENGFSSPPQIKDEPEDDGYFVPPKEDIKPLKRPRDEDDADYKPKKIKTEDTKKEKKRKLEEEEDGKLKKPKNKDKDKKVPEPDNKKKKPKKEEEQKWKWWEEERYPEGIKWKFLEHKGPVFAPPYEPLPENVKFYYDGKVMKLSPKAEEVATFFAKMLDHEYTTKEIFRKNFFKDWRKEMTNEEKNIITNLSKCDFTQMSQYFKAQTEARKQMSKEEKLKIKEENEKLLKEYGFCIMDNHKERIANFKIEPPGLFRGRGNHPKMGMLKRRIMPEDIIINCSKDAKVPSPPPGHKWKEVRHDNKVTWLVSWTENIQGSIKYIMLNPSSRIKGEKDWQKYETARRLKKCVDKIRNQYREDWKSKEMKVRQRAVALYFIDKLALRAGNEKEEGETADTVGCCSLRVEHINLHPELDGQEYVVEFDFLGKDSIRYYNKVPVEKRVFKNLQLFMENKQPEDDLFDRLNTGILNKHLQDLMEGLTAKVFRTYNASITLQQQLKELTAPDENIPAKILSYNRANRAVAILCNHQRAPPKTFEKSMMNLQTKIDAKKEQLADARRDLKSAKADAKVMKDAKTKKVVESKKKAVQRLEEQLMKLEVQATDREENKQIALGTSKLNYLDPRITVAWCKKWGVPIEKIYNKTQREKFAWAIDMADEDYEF", "assay": "Inhibition of human recombinant topoisomerase I using DNA pBR322 as substrate assessed as relaxed DNA at 100 uM incubated for 30 mins by gel electrophoresis analysis relative to control"}, "HCT-116 [7]": {"tested_on": "HCT-116", "assay": "Antitumor activity against human HCT-116 cells xenografted in nude BALB/c mouse assessed as tumor growth inhibition at 1 mg/kg, ip dosed once the other day for 24 days", "type": "functional", "conditions": "HCT-116, ip, 576 h, time 24 day, read-out: TGI"}, "[8]": {"assay": "MRT (0 to infinity) in nude BALB/c mouse serum at 8.0 mg/kg incubated up to 9 hrs, po administered via gavage by LC-MS/MS analysis", "type": "ADME, organism-based"}, "HCT-116 [9]": {"tested_on": "HCT-116", "assay": "Antitumor activity against human HCT-116 cells xenografted in nude BALB/c mouse assessed as tumor growth inhibition at 8 mg/kg, po dosed once the other day for 12 times upto 24 days", "type": "functional", "set-up": "scale not given: the % may be the effect or the level left", "conditions": "time day <=24"}, "Raji [10]": {"tested_on": "Raji", "assay": "Antitumor activity against NPG mouse xenografted with human Raji cell assessed as decrease in tumor volume at 4 mg/kg, ip measured on the 1 day", "type": "functional"}, "[11]": {"assay": "Toxicity in NPG mouse xenografted with human Raji cells assessed as body weight loss at 2 mg/kg, ip measured on the day 1", "type": "organism-based", "conditions": "in vivo"}, "[12]": {"assay": "Toxicity in Kunming mouse assessed as mortality at 300 mg/kg, po measured once every 30 mins upto 10 days", "type": "organism-based", "conditions": "in vivo, 0.5 h"}, "HCT-116 [13]": {"tested_on": "HCT-116", "assay": "Antitumor activity against human HCT-116 cells xenografted in nude BALB/c mouse assessed as tumor growth inhibition at 0.5 mg/kg, po dosed once the other day for 12 times upto 24 days", "type": "functional", "conditions": "HCT-116, po, 576 h, time day <=24, read-out: TGI"}, "[14]": {"assay": "Clearance in nude BALB/c mouse serum at 8.0 mg/kg incubated up to 9 hrs, iv administered […] by LC-MS/MS analysis", "type": "ADME, organism-based"}, "[15]": {"assay": "Half life in nude BALB/c mouse serum at 8.0 mg/kg incubated up to 9 hrs, po administered via gavage by LC-MS/MS analysis", "type": "ADME, organism-based"}, "[16]": {"assay": "Cmax in nude BALB/c mouse serum at 8.0 mg/kg incubated up to 9 hrs, po administered via gavage by LC-MS/MS analysis", "type": "ADME, organism-based", "set-up": "route oral, dose 8 mg/kg, time <=9"}, "[17]": {"assay": "Solubility of compound in phosphate buffer at pH 4.5 incubated for 24 hrs under shaking condition by HPLC analysis", "type": "physicochemical"}, "[18]": {"assay": "Clearance in nude BALB/c mouse serum at 8.0 mg/kg incubated up to 9 hrs, po administered via gavage by LC-MS/MS analysis", "type": "ADME, organism-based"}, "Raji [19]": {"tested_on": "Raji", "assay": "Cytotoxicity against human Raji assessed as reduction in cell viability measured after 72 hrs by MTT assay", "type": "functional, cell-based"}, "Raji [20]": {"tested_on": "Raji", "assay": "Antitumor activity against NPG mouse xenografted with human Raji cell assessed as decrease in tumor volume at 4 mg/kg, ig measured after 5 day", "type": "functional"}, "Raji [21]": {"tested_on": "Raji", "assay": "Antitumor activity against NPG mouse xenografted with human Raji cell assessed as tumor growth inhibition at 8 mg/kg, ig measured after 5 day", "type": "functional", "conditions": "po, 120 h, read-out: TGI"}, "[22]": {"biological_target": "T1, DNA topoisomerase 1 (Homo sapiens)", "assay": "Inhibition of human recombinant topoisomerase I using DNA pBR322 as substrate assessed as relaxed DNA at 1 uM incubated for 30 mins by gel electrophoresis analysis relative to control"}, "Raji [23]": {"tested_on": "Raji", "assay": "Antitumor activity against NPG mouse xenografted with human Raji cell assessed as decrease in tumor volume at 4 mg/kg, ig measured on the 1 day", "type": "functional"}, "NCI-H1975": {"tested_on": "NCI-H1975", "assay": "Cytotoxicity against human NCI-H1975 assessed as reduction in cell viability measured after 72 hrs by MTT assay", "type": "functional, cell-based", "conditions": "NCI-H1975, 72 h"}, "[24]": {"assay": "Toxicity in Kunming mouse assessed as mortality at 150 mg/kg ip measured once every 30 mins upto 10 days", "type": "organism-based", "conditions": "in vivo, 0.5 h"}, "HCT-116 [25]": {"tested_on": "HCT-116", "assay": "Induction of apoptosis in human HCT-116 cells assessed as late apoptotic cells level at 1 uM incubated for 24 hrs by Annexin V-FITC/PI staining based flow cytometry (reference value: 0.07%)", "type": "functional"}, "[26]": {"assay": "Solubility of compound in water incubated for 24 hrs under shaking condition by HPLC analysis", "type": "physicochemical"}, "[27]": {"assay": "Toxicity in NPG mouse xenografted with human Raji cells assessed as body weight loss at 4 mg/kg, ip measured after 5 day", "type": "organism-based", "conditions": "in vivo, 120 h"}, "A549": {"tested_on": "A549", "assay": "Cytotoxicity against human A549 assessed as reduction in cell viability measured after 72 hrs by MTT assay", "type": "functional, cell-based", "conditions": "A549, 72 h"}},
  "data": [
    {"smiles": "CCc1c2c(nc3ccc(OCC(=O)N4CCCCC4)cc13)-c1cc3c(c(=O)n1C2)COC(=O)[C@]3(O)CC", "values": [
      {"measurement": "Activity", "setting": "Raji [1]", "value": 1374, "unit": "mm3"},
      {"measurement": "Activity", "setting": "Raji [2]", "value": 936, "unit": "mm3"},
      {"measurement": "IC50", "setting": "COLO 205", "value": 0.096, "unit": "µM"},
      {"measurement": "AUC", "setting": "[3]", "value": 748.96, "unit": "h/ng/mL"},
      {"measurement": "MRT inf", "setting": "[4]", "value": 0.23, "unit": "h"},
      {"measurement": "Activity", "setting": "[5]", "value": "Toxic"},
      {"measurement": "inhibition", "setting": "[6]", "value": 63.5, "unit": "%"},
      {"measurement": "inhibition in vivo at 1 mg/kg", "setting": "HCT-116 [7]", "value": 90.2, "unit": "%"},
      {"measurement": "MRT inf", "setting": "[8]", "value": 1.15, "unit": "h"},
      {"measurement": "Activity", "setting": "HCT-116 [9]", "value": 96.2, "unit": "%"},
      {"measurement": "Activity", "setting": "Raji [10]", "value": 1186, "unit": "mm3"},
      {"measurement": "Activity", "setting": "[11]", "value": 23.2, "unit": "g"},
      {"measurement": "Activity", "setting": "[12]", "value": "Toxic"},
      {"measurement": "inhibition in vivo at 0.5 mg/kg", "setting": "HCT-116 [13]", "value": 48.1, "unit": "%"},
      {"measurement": "clearance", "setting": "[14]", "value": 0.179, "unit": "mL/min"},
      {"measurement": "half-life", "setting": "[15]", "value": 1.46, "unit": "h"},
      {"measurement": "Cmax", "setting": "[16]", "value": 0.333, "unit": "µg/mL"},
      {"measurement": "solubility thermodynamic at 24 h", "setting": "[17]", "value": 9.86, "unit": "µg/mL"},
      {"measurement": "CL/F", "setting": "[18]", "value": 0.794, "unit": "mL/min"},
      {"measurement": "IC50", "setting": "Raji [19]", "value": 0.002, "unit": "µM"},
      {"measurement": "Activity", "setting": "Raji [20]", "value": 1203, "unit": "mm3"},
      {"measurement": "inhibition in vivo at 8 mg/kg", "setting": "Raji [21]", "value": 81.3, "unit": "%"},
      {"measurement": "inhibition", "setting": "[22]", "value": 38.1, "unit": "%"},
      {"measurement": "Activity", "setting": "Raji [23]", "value": 900, "unit": "mm3"},
      {"measurement": "IC50", "setting": "NCI-H1975", "value": 0.084, "unit": "µM"},
      {"measurement": "Activity", "setting": "[24]", "value": "Non-Toxic"},
      {"measurement": "Activity", "setting": "HCT-116 [25]", "value": 6.4, "unit": "%"},
      {"measurement": "solubility thermodynamic at 24 h", "setting": "[26]", "value": 6.22, "unit": "µg/mL"},
      {"measurement": "Activity", "setting": "[27]", "value": 19.2, "unit": "g"},
      {"measurement": "IC50", "setting": "A549", "value": 0.011, "unit": "µM"}
    ]}
  ]
}
